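In this assay, cells in 96-well plates receive the compound at five concentrations for 48 hours. Endpoints are linearly interpolated between the surrounding concentrations. GI50: concentration for 50% inhibition of growth. Definition used: TGI = concentration required for complete inhibition of growth.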
Experiments:
Assay in all cases: inhibition of tumour cell growth, NCI panel, 48 h
[1] = tested on: UACC-257 melanoma
[2] = tested on: CAKI-1 renal
[3] = tested on: HOP-62 NSCLC
[4] = tested on: SF-268 CNS
[5] = tested on: KM12 colon
[6] = tested on: RPMI-8226 leukemia
[7] = tested on: A549 NSCLC
[8] = tested on: CCRF-CEM leukemia
[9] = tested on: SNB-19 CNS
[10] = tested on: U251 CNS

Structure (SMILES) | TGI [1] | TGI [2] | TGI [3] | TGI [4] | TGI [5] | TGI [6] | TGI [7] | TGI [8] | TGI [9] | TGI [10] | GI50 [1] | GI50 [2] | GI50 [3] | GI50 [4] | GI50 [6] | GI50 [10] | GI50 [8] | GI50 [9] | GI50 [5] | GI50 [7]
CC(CC(=O)Nc1ccc(NC(=O)CC(C)N=NC(N)=S)cc1)N=NC(N)=S (configuration not stated) | > 100 µM | > 100 µM | > 100 µM | > 100 µM | > 100 µM | > 100 µM | > 100 µM | > 100 µM | > 100 µM | – | – | – | – | – | – | – | – | – | – | –
C#CCC(N)(CO)C(=O)O (configuration not stated) | > 100 µM | > 100 µM | > 100 µM | > 100 µM | > 100 µM | > 100 µM | > 100 µM | – | > 100 µM | > 100 µM | – | – | – | – | – | – | – | – | – | –
O=C1c2cccnc2-c2nc(-c3ccncc3)cc3c2c1nc1ccccc13 | > 100 µM | 34.8 µM | 27.4 µM | 34.5 µM | – | 64.8 µM | – | 39.6 µM | 47.4 µM | 64.5 µM | > 100 µM | 16.4 µM | 14.3 µM | 15.1 µM | 14.6 µM | 12 µM | 8.03 µM | 19.3 µM | – | –
O=C1C=C(O)c2[nH]c(=O)ccc2C1=O | > 100 µM | > 100 µM | > 100 µM | > 100 µM | – | > 100 µM | > 100 µM | > 100 µM | > 100 µM | > 100 µM | – | – | – | – | – | – | – | – | – | –
C[C@H]1[C@H](C)CC[C@]2(C(=O)NCCNCCN)CC[C@]3(C)C(=CC[C@@H]4[C@@]5(C)CCC(=O)C(C)(C)[C@@H]5CC[C@]43C)[C@H]12 | 3.89 µM | 4.01 µM | – | – | 3.42 µM | – | – | – | 3.11 µM | 3.17 µM | 1.84 µM | 1.75 µM | – | – | – | 1.66 µM | – | 1.67 µM | 1.85 µM | –
COc1ccc(Nc2nc3ccccc3nc2-c2cccs2)cc1 | > 100 µM | > 100 µM | > 100 µM | > 100 µM | > 100 µM | – | > 100 µM | > 100 µM | > 100 µM | > 100 µM | – | – | – | – | – | – | – | – | – | –
CC(C)c1ccccc1NC(=O)/C(Cl)=C1/Sc2ccccc2NC1=O | – | > 100 µM | > 100 µM | > 100 µM | – | 58.8 µM | > 100 µM | 82.8 µM | > 100 µM | > 100 µM | – | – | – | – | – | – | – | – | – | –
O=C(NC12CC3CC(CC(C3)C1)C2)C(=O)c1c[nH]c2ccc(Cl)cc12 | > 100 µM | – | 66.2 µM | > 100 µM | > 100 µM | > 100 µM | > 100 µM | > 100 µM | > 100 µM | > 100 µM | – | – | – | – | – | – | – | – | – | –
C=CCSc1nc2ccccc2c(=O)n1Cc1ccco1 | > 100 µM | > 100 µM | > 100 µM | > 100 µM | > 100 µM | > 100 µM | > 100 µM | – | > 100 µM | > 100 µM | – | – | – | – | – | – | – | – | – | –
Cc1cc(Nc2nc(SCc3ccc(C(=O)Nc4ccc(F)cc4N)cc3)nn3cccc23)n[nH]1 | 32.4 µM | – | > 100 µM | > 100 µM | 10.3 µM | 3.72 µM | 36.8 µM | > 100 µM | > 100 µM | > 100 µM | 3.69 µM | – | 0.556 µM | 1.12 µM | 0.514 µM | 0.343 µM | 0.411 µM | 0.536 µM | 0.284 µM | 0.886 µM
O=c1c(Cl)c(Cl)cnn1CCc1ccncc1 | 34.1 µM | 3.99 µM | 33.9 µM | 40.8 µM | 28.1 µM | > 100 µM | > 100 µM | 88.8 µM | 30.7 µM | – | – | – | – | – | – | – | – | – | – | –
OC(CN1CC1)C(O)CN1CC1 (configuration not stated) | > 50 µg/mL | > 50 µg/mL | > 50 µg/mL | > 50 µg/mL | > 50 µg/mL | – | > 50 µg/mL | > 50 µg/mL | > 50 µg/mL | > 50 µg/mL | > 50 µg/mL | > 50 µg/mL | > 50 µg/mL | > 50 µg/mL | – | > 50 µg/mL | > 50 µg/mL | > 50 µg/mL | > 50 µg/mL | > 50 µg/mL
Cn1c2ccccc2c2c(=O)c3ccccc3[nH]c21 | – | > 100 µM | > 100 µM | > 100 µM | > 100 µM | 91.7 µM | > 100 µM | – | > 100 µM | > 100 µM | – | > 100 µM | 38.9 µM | 25 µM | 29.6 µM | 35.8 µM | – | 43.9 µM | 22.1 µM | 26.9 µM
CCN(CC)CCNC(=O)c1cn2ncnc(Oc3ccc(NC(=O)Nc4ccc(Cl)c(C(F)(F)F)c4)c(F)c3)c2c1C | 3.18 µM | 3.13 µM | 3.72 µM | 3.74 µM | 3.08 µM | – | 3.44 µM | 4.29 µM | 3.5 µM | 3.07 µM | 1.61 µM | 1.69 µM | 1.88 µM | 1.92 µM | – | 1.59 µM | 1.41 µM | 1.95 µM | 1.57 µM | 1.77 µM
NC(=O)/C=C/C(=O)O | > 5000 µM | – | > 5000 µM | > 5000 µM | > 5000 µM | > 5000 µM | > 5000 µM | > 5000 µM | – | > 5000 µM | – | – | – | – | – | – | – | – | – | –
O=c1c2c3c(sc2n2c(-c4cc(-c5ccccc5)nn4-c4ccccc4)nnc2n1Cc1ccccc1)CCCC3 | > 100 µM | > 100 µM | > 100 µM | > 100 µM | > 100 µM | – | > 100 µM | – | > 100 µM | > 100 µM | > 100 µM | > 100 µM | > 100 µM | > 100 µM | – | > 100 µM | – | > 100 µM | > 100 µM | > 100 µM
C=CCOC(=O)CC[N+]1=CCC(c2ccccc2)(c2ccccc2)O1 | > 100 µM | > 100 µM | > 100 µM | > 100 µM | > 100 µM | – | > 100 µM | – | > 100 µM | > 100 µM | – | – | – | – | – | – | – | – | – | –
CCSc1nc(N)c2cn[nH]c2n1 | > 100 µM | 76 µM | > 100 µM | 74.1 µM | 59.6 µM | 49.1 µM | > 100 µM | – | > 100 µM | > 100 µM | 71.1 µM | 22.3 µM | 49 µM | 25.3 µM | 21.3 µM | 43.1 µM | – | 39.2 µM | 22 µM | 44.6 µM
